# Measured values published in patent publication US20230114728A1 (Venatorx Pharmaceuticals, Inc., priority 2019, published 2023).
# Like-named read-outs stand apart in the source and are kept apart here.
# Columns and labels:
# Assay in all cases: Broth microdilution MIC in iron-depleted CAMHB (IDM)
# Type in all cases: cell-based
# P. aeruginosa CDC-0110 = conditions: Pseudomonas aeruginosa, CDC0110, read-out: Minimum Inhibitory Concentration, P. aeruginosa CDC-0110
# Method: (§1) To determine the ability of test compounds to inhibit the growth bacterial strains under conditions of iron-depletion, classic cell based broth microdilution minimum inhibitory concentration (MIC) assays were employed. MIC assays are performed according to CLSI methods except where otherwise noted (CLSI, 2018 and CLSI, 2019). The reference type strain E. coli ATCC 25922 was used to determine the ability of the PBP inhibitors to inhibit the growth of Enterobacteriaceae. Wild-type P. aeruginosa ATCC 27853, A. baumannii ATCC 17978 and A. baumannii ATCC 19606, along with the hyper-permeable P. aeruginosa ATCC 35151, an engineered efflux pump-compromised strain of P. aeruginosa (ΔmexAB-oprM), and an engineered efflux-pump compromised strain of A. baumannii IL123 (ABΔ3-ARAEcPore) were used to determine the ability of PBP inhibitors to penetrate the outer membrane of P. aeruginosa and A. baumannii and assess antibacterial activity against these important gram-negative organisms.
# (§2) Briefly, cryo-preserved bacterial cultures of challenge strains are streaked for isolation on appropriate agar medium, in this case cation-adjusted Mueller Hinton agar. Following incubation to allow growth of the colonies, plates are sealed with parafilm and stored refrigerated for up to two weeks. For preparation of assay inoculum and to ensure low variability, at least 5 colonies are picked from the agar plates with an inoculating loop and aseptically transferred to a culture tube containing 3 mL of iron-depleted cation-adjusted Mueller Hinton broth (IDM)—see below for IDM preparation. The broth culture is grown for 3-5 hours at 37° C. with shaking at 200 rpm. Meanwhile, 2-fold serial dilutions of test compounds are conducted in a 96-well plate with a final volume of 75 μL per well at 2-fold the final desired concentration. After the dilution plates are set up the growing cultures are then diluted in a cuvette containing IDM and the optical density is measured at 600 nm. The inoculum is diluted such that 75 μL of this culture in IDM results in a starting bacterial concentration of 2-8×10^5 CFU/mL when added to the dilution plates. The plates are incubated for 16-20 hours for Enterobacteriaceae and Pseudomonas and 20-24 hours for Acinetobacter at 37° C. The MIC values are read visually as the lowest concentration well with no bacterial growth.
# (§3) Method for Iron-Depleted Cation-Adjusted Mueller Hinton Broth (IDM) Preparation:
# (§4) • Prepare cation-adjusted Mueller Hinton broth as per the manufacturer's recommendations and autoclave. • Add 100 g/L Chelex 100 resin, cover with foil and incubate with stirring for 2 hours • Remove Chelex 100 resin by filtration with 0.45 μm filter flask • Add the following back to the medium: • CaCl2 dihydrate: 82.5 mg/L • MgCl2 hexahydrate: 94.1 mg/L • ZnSO4: 10 μM • Adjust pH of medium to 7.3 with 5 N HCl • Sterilize using a 0.22 µm filter flask
# [1] = test system: P. aeruginosa CDC-0090 producing KPC-5, OXA-50, and PAO; conditions: Pseudomonas aeruginosa, read-out: Minimum Inhibitory Concentration, P. aeruginosa CDC-0090
# Method: (§5) Example IV: In Vitro Antibacterial Assays in Iron-Depleted Cation-Adjusted Mueller-Hinton Broth
# as §1, §2, §3, §4
# [2] = test system: P. aeruginosa (ΔmexAB-oprM); conditions: Pseudomonas aeruginosa, read-out: Minimum Inhibitory Concentration, P. aeruginosa ΔmexAB-OprM
# Method: as §5, §1, §2, §3, §4
# P. aeruginosa ATCC 27853 = conditions: Pseudomonas aeruginosa
# Method: as §5, §1, §2, §3, §4
# [3] = test system: P. aeruginosa CDC-0054 producing VIM-4, OXA-50, and PAO; conditions: Pseudomonas aeruginosa, read-out: Minimum Inhibitory Concentration, P. aeruginosa CDC-0054
# Method: as §5, §1, §2, §3, §4
# P. aeruginosa ATCC 35151 = conditions: Pseudomonas aeruginosa, ATCC35151; iron-depleted MHB (IDM); hyper-permeable strain; read-out: Minimum Inhibitory Concentration, P. aeruginosa ATCC 35151
# Method: as §5, §1, §2, §3, §4
# [4] = test system: A. baumannii IL123 (ABΔ3-ARAEcPore); conditions: Acinetobacter baumannii, read-out: Minimum Inhibitory Concentration, IL-2123
# Method: as §5, §1, §2, §3, §4
# [5] = test system: A. baumannii CDC-0083 producing NDM-1, PER-7, OXA-23, and OXA-69; conditions: Acinetobacter baumannii, read-out: Minimum Inhibitory Concentration, CDC-0083
# Method: as §5, §1, §2, §3, §4
# [6] = test system: A. baumannii CDC-0033 producing NDM-1, and OXA-94; conditions: Acinetobacter baumannii, read-out: Minimum Inhibitory Concentration, CDC-0033
# Method: as §5, §1, §2, §3, §4
# [7] = test system: A. baumannii CDC-0036 OXA-65, and OXA-24; conditions: Acinetobacter baumannii, read-out: Minimum Inhibitory Concentration, CDC-0036
# Method: as §5, §1, §2, §3, §4
# A. baumannii ATCC 17978 = conditions: Acinetobacter baumannii
# Method: as §5, §1, §2, §3, §4
# [8] = test system: P. aeruginosa CDC-0095 producing OXA-50, and PAO; conditions: Pseudomonas aeruginosa, read-out: Minimum Inhibitory Concentration, P. aeruginosa CDC-0095
# Method: as §5, §1, §2, §3, §4
# A. baumannii ATCC 19606 = conditions: Acinetobacter baumannii
# Method: as §5, §1, §2, §3, §4
# [9] = test system: A. baumannii CDC-0045 producing TEM-1D, OXA-23, and OXA-69; conditions: Acinetobacter baumannii, read-out: Minimum Inhibitory Concentration, CDC-0045
# [10] = ATCC27853, read-out: Minimum Inhibitory Concentration, P. aeruginosa ATCC 27853
# [11] = ATCC17978, read-out: Minimum Inhibitory Concentration, ATCC 17978
# [12] = ATCC19606, read-out: Minimum Inhibitory Concentration, ATCC 19606
SMILES,MIC (P. aeruginosa CDC-0110) [µg/mL],MIC [1] [µg/mL],MIC [2] [µg/mL],"MIC (P. aeruginosa ATCC 27853; ATCC27853, iron-depleted MHB (IDM), read-out: Minimum Inhibitory Concentration, P. aeruginosa ATCC 27853) [µg/mL]",MIC [3] [µg/mL],MIC (P. aeruginosa ATCC 35151) [µg/mL],MIC [4] [µg/mL],MIC [5] [µg/mL],MIC [6] [µg/mL],MIC [7] [µg/mL],"MIC (A. baumannii ATCC 17978; ATCC17978, A. baumannii ATCC 17978, iron-depleted MHB (IDM), read-out: Minimum Inhibitory Concentration, ATCC 17978) [µg/mL]",MIC [8] [µg/mL],"MIC (A. baumannii ATCC 19606; ATCC19606, A. baumannii ATCC 19606, iron-depleted MHB (IDM), read-out: Minimum Inhibitory Concentration, ATCC 19606) [µg/mL]",MIC [9] [µg/mL],MIC (P. aeruginosa ATCC 27853; [10]) [µg/mL],MIC (A. baumannii ATCC 17978; [11]) [µg/mL],MIC (A. baumannii ATCC 19606; [12]) [µg/mL]
"NCCCN1CCN(C(=O)N[C@H](C(=O)N[C@H]2Cc3ccc(F)c(C(=O)O)c3OB2O)c2ccc(O)c(O)c2Cl)C(=O)C1=O (single isomer, unassigned) [Example 28]",8 to 16,2 to 4,0.5 to 1,2 to 4,2 to 4,0.25,32 to 64,32 to 64,32 to 64,32 to 64,0.5 to 1,32 to 64,8 to 16,32 to 64,–,–,–
"O=C(O)c1c(F)ccc2c1OB(O)[C@@H](NC(=O)[C@H](NC(=O)N1CCNC1=O)c1c(F)cc(O)c(O)c1Cl)C2 (single isomer, unassigned) [Example 34]",0.5 to 1,0.5 to 1,0.25,–,0.5 to 1,0.25,2 to 4,0.5 to 1,0.5 to 1,0.5 to 1,–,32 to 64,–,0.25,0.5 to 1,0.25,0.25
"CS(=O)(=O)N1CCN(C(=O)N[C@@H](C(=O)N[C@H]2Cc3ccc(F)c(C(=O)O)c3OB2O)c2c(F)cc(O)c(O)c2Cl)C1=O (single isomer, unassigned) [Example 35]",0.5 to 1,0.5 to 1,0.25,–,0.5 to 1,0.25,2 to 4,0.25,0.5 to 1,0.5 to 1,–,32 to 64,–,0.25,0.5 to 1,0.25,0.25
"NCCN1CCN(C(=O)N[C@@H](C(=O)N[C@H]2Cc3ccc(F)c(C(=O)O)c3OB2O)c2c(F)cc(O)c(O)c2F)C(=O)C1=O (single isomer, unassigned) [Example 40]",2 to 4,8 to 16,0.25,–,8 to 16,0.25,8 to 16,0.5 to 1,2 to 4,2 to 4,–,2 to 4,–,2 to 4,2 to 4,0.25,0.5 to 1
"NCCCN1CCN(C(=O)N[C@@H](C(=O)N[C@H]2Cc3ccc(F)c(C(=O)O)c3OB2O)c2c(F)cc(O)c(O)c2F)C(=O)C1=O (single isomer, unassigned) [Example 41]",2 to 4,0.25,0.25,–,2 to 4,0.25,2 to 4,0.5 to 1,2 to 4,2 to 4,–,2 to 4,–,0.5 to 1,2 to 4,0.25,0.5 to 1
"CCN1CCN(C(=O)NC(C(=O)N[C@H]2Cc3cccc(C(=O)O)c3OB2O)c2ccc(O)c(NC(=O)c3ccc(O)c(O)c3Cl)c2)C(=O)C1=O (stereo partly drawn) [Example 74, (3R)-3-(2-(3-(2-chloro-3,4-dihydroxybenzamido)-4-hydroxyphenyl)-2-(4-ethyl-2,3-dioxopiperazine-1-carboxamido)acetamido)-2-hydroxy-3,4-dihydro-2H-benzo[e][1,2]oxaborinine-8-carboxylic acid]",2 to 4,32 to 64,0.5 to 1,–,0.5 to 1,0.25,–,32 to 64,32 to 64,32 to 64,–,0.5 to 1,–,32 to 64,8 to 16,32 to 64,32 to 64
"CC(C)(C)[C@@H](NC(=O)N1CCN(CCNC(=O)c2c(F)cc(O)c(O)c2Cl)C(=O)C1=O)C(=O)N[C@H]1Cc2ccc(F)c(C(=O)O)c2OB1O [Example 80, (R)-3-((R)-2-(4-(2-(2-chloro-6-fluoro-3,4-dihydroxybenzamido)ethyl)-2,3-dioxopiperazine-1-carboxamido)-3,3-dimethylbutanamido)-7-fluoro-2-hydroxy-3,4-dihydro-2H-benzo[e][1,2]oxaborinine-8-carboxylic acid]",0.5 to 1,2 to 4,0.25,–,2 to 4,0.25,–,32 to 64,8 to 16,8 to 16,–,2 to 4,–,8 to 16,2 to 4,0.5 to 1,2 to 4
